Results: ChEMBL document CHEMBL1201862, “PubChem BioAssay data set” (2004)
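Values below derive from 48-hour exposures of cells grown in 96-well plates, with endpoints linearly interpolated between the two concentrations bracketing the appropriate inhibition level. The concentration for 50% growth inhibition is given as GI50.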 Activity calls are given as the source filed them. Rule as the data show it: active = GI50 up to about 1.1 µM and inactive = higher.

Assays:
Test in all cases: inhibition of tumour cell growth, NCI panel, 48 h
[1] = tested on: NCI-H460
[2] = tested on: SNB-19
[3] = tested on: SF-295
[4] = tested on: NCI-H522
[5] = tested on: OVCAR-8
[6] = tested on: HCT-116
[7] = tested on: HCT-15
[8] = tested on: NCI-H23
[9] = tested on: U-251
[10] = tested on: CCRF-CEM
[11] = tested on: EKVX
[12] = tested on: KM12
[13] = tested on: Malme-3M
[14] = tested on: HL-60
[15] = tested on: RXF 393
[16] = tested on: OVCAR-3
[17] = tested on: UACC-257
[18] = tested on: SK-MEL-28
[19] = tested on: SN12C
[20] = tested on: UACC-62

SMILES	GI50 [1]	GI50 [2]	GI50 [3]	GI50 [4]	GI50 [5]	GI50 [6]	GI50 [7]	GI50 [8]	GI50 [9]	GI50 [10]	GI50 [11]	GI50 [12]	GI50 [13]	GI50 [14]	GI50 [15]	GI50 [16]	GI50 [17]	GI50 [18]	GI50 [19]	GI50 [20]
C#CC(C)(C)OCCCCOc1cc(O)c2c(=O)c3ccccc3n(C)c2c1	57.5 µM (inactive)	> 100 µM (inactive)	> 100 µM (inactive)	> 100 µM (inactive)	> 100 µM (inactive)	> 100 µM (inactive)	> 100 µM	> 100 µM (inactive)	> 100 µM (inactive)	> 100 µM (inactive)	> 100 µM (inactive)	97.9 µM (inactive)	> 100 µM (inactive)	> 100 µM (inactive)	> 100 µM (inactive)	> 100 µM (inactive)	> 100 µM (inactive)	> 100 µM (inactive)	> 100 µM (inactive)	> 100 µM (inactive)
CN(C)C(=O)NCCN1CCCCCc2ccccc21	> 100 µM (inactive)	> 100 µM (inactive)	> 100 µM (inactive)	> 100 µM (inactive)	> 100 µM (inactive)	> 100 µM (inactive)	> 100 µM	76.4 µM (inactive)	> 100 µM (inactive)	71.8 µM (inactive)	> 100 µM (inactive)	> 100 µM (inactive)	> 100 µM (inactive)	31.3 µM (inactive)	> 100 µM (inactive)	37 µM (inactive)	76 µM (inactive)	> 100 µM (inactive)	> 100 µM (inactive)	> 100 µM (inactive)
ClCc1ccc2ccc3ccc(CCl)nc3c2n1	4.62 µM (inactive)	11.9 µM (inactive)	2.31 µM (inactive)	1.76 µM (inactive)	3.36 µM (inactive)	1.69 µM (inactive)	1.78 µM	2.9 µM (inactive)	1.93 µM (inactive)	1.8 µM (inactive)	15.6 µM (inactive)	0.9 µM (active)	1.92 µM (inactive)	1.8 µM (inactive)	1.72 µM (inactive)	1.94 µM (inactive)	1.29 µM (inactive)	1.83 µM (inactive)	2.36 µM (inactive)	1.34 µM (inactive)
COC(=O)[C@H](Cc1ccccc1)NC(=O)N(CCNC(=O)OC(C)(C)C)c1ccccc1	> 100 µM (inactive)	> 100 µM (inactive)	> 100 µM (inactive)	> 100 µM (inactive)	> 100 µM (inactive)	> 100 µM (inactive)	> 100 µM	> 100 µM (inactive)	> 100 µM (inactive)	> 100 µM (inactive)	> 100 µM (inactive)	> 100 µM (inactive)	> 100 µM (inactive)	> 100 µM (inactive)	87.1 µM (inactive)	> 100 µM (inactive)		> 100 µM (inactive)	> 100 µM (inactive)	> 100 µM (inactive)
COc1cc2c(ccc3c4cc(OC)c(OC)cc4c[n+](C)c23)cc1O [FAGARONINE]	14.7 µM (inactive)	1.15 µM (inactive)	7.93 µM (inactive)	0.131 µM (active)	1.69 µM (inactive)	4.24 µM (inactive)	> 73.3 µM	7.76 µM (inactive)	0.264 µM (active)	2.02 µM (inactive)	39.6 µM (inactive)	> 75 µM (inactive)	15.6 µM (inactive)	48 µM (inactive)	30 µM (inactive)	4.72 µM (inactive)	> 67 µM (inactive)	52.7 µM (inactive)	0.726 µM (active)	1.23 µM (inactive)
OC[C@H]1C[C@@H]2Cc3ccccc3N2N1	> 100 µM (inactive)	> 100 µM (inactive)	> 100 µM (inactive)	> 100 µM (inactive)	> 100 µM (inactive)	> 100 µM (inactive)	> 100 µM	> 100 µM (inactive)	> 100 µM (inactive)	> 100 µM (inactive)	> 100 µM (inactive)	> 100 µM (inactive)	> 100 µM (inactive)	> 100 µM (inactive)	> 100 µM (inactive)	> 100 µM (inactive)	> 100 µM (inactive)	> 100 µM (inactive)	> 100 µM (inactive)	> 100 µM (inactive)
CCOC(=O)/C=C/n1c2ccccc2c(=O)c2ccccc21	> 100 µM (inactive)	> 100 µM (inactive)	> 100 µM (inactive)	> 100 µM (inactive)	> 100 µM (inactive)	> 100 µM (inactive)	> 100 µM	> 100 µM (inactive)	> 100 µM (inactive)	> 100 µM (inactive)	> 100 µM (inactive)	> 100 µM (inactive)	> 100 µM (inactive)	> 100 µM (inactive)	> 100 µM (inactive)	> 100 µM (inactive)	> 100 µM (inactive)	> 100 µM (inactive)	> 100 µM (inactive)	> 100 µM (inactive)
CC1NC(=O)C(C)C(c2ccccc2)N(N=O)C1c1ccccc1 (stereo not drawn)	> 61.7 µM (inactive)	> 76.9 µM (inactive)	> 34.7 µM (inactive)	88.9 µM (inactive)	> 100 µM (inactive)	> 59 µM (inactive)	55.2 µM	> 100 µM (inactive)	> 100 µM (inactive)	55.7 µM (inactive)	> 83 µM (inactive)	74.1 µM (inactive)	> 100 µM (inactive)	22.9 µM (inactive)	60.7 µM (inactive)	> 52.5 µM (inactive)	> 100 µM (inactive)	> 100 µM (inactive)	> 100 µM (inactive)	> 88.5 µM (inactive)
COc1cccc(OCC(=N/NC(=O)c2ccncc2)/N=C/c2ccncc2)c1	> 100 µM (inactive)	> 100 µM (inactive)	> 100 µM (inactive)	> 100 µM (inactive)	> 100 µM (inactive)	> 100 µM (inactive)	> 100 µM	> 100 µM (inactive)	> 100 µM (inactive)	> 100 µM (inactive)	> 100 µM (inactive)	> 100 µM (inactive)	> 100 µM (inactive)	> 100 µM (inactive)	52 µM (inactive)	> 100 µM (inactive)	> 100 µM (inactive)	> 100 µM (inactive)	> 100 µM (inactive)	> 100 µM (inactive)
Cn1c2ccc([N+](=O)[O-])cc2c(=O)n1Cc1ccccc1F	40.1 µM (inactive)	33.5 µM (inactive)	54.1 µM (inactive)	24.5 µM (inactive)	28.6 µM (inactive)	29.1 µM (inactive)	40.5 µM	48 µM (inactive)	37.7 µM (inactive)	46.6 µM (inactive)	41.5 µM (inactive)	35.3 µM (inactive)	46.8 µM (inactive)	64.4 µM (inactive)	61 µM (inactive)	40.8 µM (inactive)	42.4 µM (inactive)	47.5 µM (inactive)	> 100 µM (inactive)	48.5 µM (inactive)
CON(C)C(C#N)=C(C#N)C#N	> 10 µM (inactive)	> 10 µM (inactive)	> 10 µM (inactive)	> 10 µM (inactive)	> 10 µM (inactive)	> 10 µM (inactive)	> 10 µM	> 10 µM (inactive)	> 10 µM (inactive)	> 10 µM (inactive)	> 10 µM (inactive)	> 10 µM (inactive)	> 10 µM (inactive)	> 10 µM (inactive)	> 10 µM (inactive)	> 10 µM (inactive)		> 10 µM (inactive)	> 10 µM (inactive)	> 10 µM (inactive)
